Test results reported in patent publication US10485256B2, “Stevia sweetener with improved solubility with a cyclodextrin” (EPC Natural Products Co., Ltd., priority 2014, dated 2019).

Assays:
[1] = Stability test: period that the system remains in solution form, without precipitation; type: physicochemical; conditions: 25° C.; for stability (period the system remain a solution form, without precipitation): Concentration 1 weight %
Method: Concentration of RA was weight (g) in 100 g of water.
The stability test was performed at ambient temperature (25° C.), and was in water.
The acidic aqueous conditions were formulated with citric acid and water, and the pH was 3.0.
Concentration of RA+RD was weight (g) in 100 g of water.
The stability test was performed at ambient temperature (25° C.) and was in water.
Concentration of RA+RB+RD was weight (g) in 100 g of water.
Concentration of RB or RD was weight (g) in 100 g of water.

[2] = Dissolution property at room temperature; type: physicochemical; conditions: concentration 1%; without a solublizer (no cyclodextrin); water
[3] = γ-cyclodextrin mole ratio 1, water

Row | stability (period the system remains in solution form, without precipitation) ([1]; acidic (citric acid, pH 3.0), RA 3.5 weight %, γ-cyclodextrin mole ratio 1) [h] | stability (period the system remains in solution form, without precipitation) ([1]; neutral, RA 3 weight %, γ-cyclodextrin mole ratio 0.5, water) [h] | stability (period the system remains in solution form, without precipitation) ([1]; neutral, RA 3 weight %, γ-cyclodextrin mole ratio 0.6, water) [h] | stability (period the system remains in solution form, without precipitation) ([1]; neutral, RA 3 weight %, γ-cyclodextrin mole ratio 0.7, water) [h] | stability (period the system remains in solution form, without precipitation) ([1]; neutral, RA 3 weight %, γ-cyclodextrin mole ratio 0.8, water) [h] | stability (period the system remains in solution form, without precipitation) ([1]; neutral, RA 3 weight %, γ-cyclodextrin mole ratio 0.85, water) [h] | stability (period the system remains in solution form, without precipitation) ([1]; neutral, RA 3.5 weight %, γ-cyclodextrin mole ratio 0, water) [h] | stability (period the system remains in solution form, without precipitation) ([1]; neutral, RA 3.5 weight %, γ-cyclodextrin mole ratio 0.85, water) [h] | stability (period the system remains in solution form, without precipitation) ([1]; neutral, RA 3.5 weight %, γ-cyclodextrin mole ratio 1, water) [h] | formation of a solution [2] | stability (period the system remain a solution form, without precipitation) [1, 3] [h] | Compound
1 | 120 | 1 | 2 | 24 | 52 | 92 | 2 | 160 | 336 | – | – | C=C1C[C@@]23CC[C@H]4[C@@](C)(CCC[C@@]4(C)C(=O)O[C@@H]4O[C@H](CO)[C@@H](O)[C@H](O)[C@H]4O)[C@@H]2CC[C@]1(O[C@@H]1O[C@H](CO)[C@@H](O)[C@H](O[C@@H]2O[C@H](CO)[C@@H](O)[C@H](O)[C@H]2O)[C@H]1O[C@@H]1O[C@H](CO)[C@@H](O)[C@H](O)[C@H]1O)C3 [RA, Rebaudioside A]
2 | – | – | – | – | – | – | – | – | – | did not form a solution | 48 | C=C1C[C@@]23CC[C@H]4[C@@](C)(CCC[C@@]4(C)C(=O)O[C@@H]4O[C@H](CO)[C@@H](O)[C@H](O)[C@H]4O[C@@H]4O[C@H](CO)[C@@H](O)[C@H](O)[C@H]4O)[C@@H]2CC[C@]1(O[C@@H]1O[C@H](CO)[C@@H](O)[C@H](O[C@@H]2O[C@H](CO)[C@@H](O)[C@H](O)[C@H]2O)[C@H]1O[C@@H]1O[C@H](CO)[C@@H](O)[C@H](O)[C@H]1O)C3 [RD, Rebaudioside D]
3 | – | – | – | – | – | – | – | – | – | did not form a solution | 0.333 | Rebaudioside B [RB]
